Source: ChEMBL document CHEMBL4602647, “Protective effects of 10,11-dihydro-5H-dibenzo[b,f]azepine hydroxamates on vascular cognitive impairment” (Eur J Med Chem, 2020)
Converted amounts (≈) assume the structure as drawn. The source made the active and inactive calls. No cut-off for these calls is given here.

Experiments:
Histone deacetylase 2 = Histone deacetylase 2 (Homo sapiens, UniProt Q92769); experiment: Inhibition of recombinant human C-terminal GST-tagged HDAC2 (1 to 488 residues) expressed in baculovirus infected sf21 cells using RHK-K(Ac)-AMC as substrate after 60 mins by fluorimetry assay; conditions: read-out: IC50
Histone deacetylase 2, sequence (Q92769 whole entry, the tested form may be a part): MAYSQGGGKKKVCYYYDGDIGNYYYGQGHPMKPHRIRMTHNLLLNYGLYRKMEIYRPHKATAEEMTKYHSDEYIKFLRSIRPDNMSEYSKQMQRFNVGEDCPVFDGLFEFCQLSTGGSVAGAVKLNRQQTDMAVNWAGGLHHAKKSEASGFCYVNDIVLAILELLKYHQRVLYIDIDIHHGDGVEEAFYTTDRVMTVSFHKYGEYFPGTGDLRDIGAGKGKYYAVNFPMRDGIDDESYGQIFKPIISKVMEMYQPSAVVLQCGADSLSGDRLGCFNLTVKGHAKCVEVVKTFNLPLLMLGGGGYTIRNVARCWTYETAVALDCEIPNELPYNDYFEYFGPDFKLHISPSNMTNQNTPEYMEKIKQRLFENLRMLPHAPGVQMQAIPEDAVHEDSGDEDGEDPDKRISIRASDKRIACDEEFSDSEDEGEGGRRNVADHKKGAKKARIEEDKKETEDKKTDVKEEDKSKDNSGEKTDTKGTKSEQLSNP

Mus musculus [1] = experiment: Anti-vascular cognitive impairment activity against bilateral common carotid artery occlusion-induced vascular dementia C57BL/6J mouse model assessed as ratio of cerebral blood flow in right parietal area at 25 mg/kg, ip administered post surgery measured after 3 months (reference value: 0.761 +/- 0.037); assay type: functional
Mus musculus [2] = experiment: Upregulation of acetylated H4K5 protein expression in left side cortex of bilateral common carotid artery occlusion-induced vascular dementia C57BL/6J mouse model at 25 mg/kg, ip measured after 3 months by Western blot analysis; assay type: functional, organism-based
Mus musculus [3] = experiment: Anti-vascular cognitive impairment activity against bilateral common carotid artery occlusion-induced vascular dementia C57BL/6J mouse model assessed as reduction in cerebral blood flow at 25 mg/kg, ip administered post surgery measured after 3 months relative to sham-operated control; assay type: functional; set-up: scale not given: the % may be the effect or the level left
[4] = biological target: T1, Protein deacetylase HDAC6 (Homo sapiens, UniProt Q9UBN7); experiment: Inhibition of recombinant human N-terminal GST-tagged HDAC6 (1 to 1215 residues) expressed in baculovirus infected insect cells using RHK-K(Ac)-AMC as substrate after 90 mins by fluorimetry analysis
T1 sequence (Q9UBN7 whole entry): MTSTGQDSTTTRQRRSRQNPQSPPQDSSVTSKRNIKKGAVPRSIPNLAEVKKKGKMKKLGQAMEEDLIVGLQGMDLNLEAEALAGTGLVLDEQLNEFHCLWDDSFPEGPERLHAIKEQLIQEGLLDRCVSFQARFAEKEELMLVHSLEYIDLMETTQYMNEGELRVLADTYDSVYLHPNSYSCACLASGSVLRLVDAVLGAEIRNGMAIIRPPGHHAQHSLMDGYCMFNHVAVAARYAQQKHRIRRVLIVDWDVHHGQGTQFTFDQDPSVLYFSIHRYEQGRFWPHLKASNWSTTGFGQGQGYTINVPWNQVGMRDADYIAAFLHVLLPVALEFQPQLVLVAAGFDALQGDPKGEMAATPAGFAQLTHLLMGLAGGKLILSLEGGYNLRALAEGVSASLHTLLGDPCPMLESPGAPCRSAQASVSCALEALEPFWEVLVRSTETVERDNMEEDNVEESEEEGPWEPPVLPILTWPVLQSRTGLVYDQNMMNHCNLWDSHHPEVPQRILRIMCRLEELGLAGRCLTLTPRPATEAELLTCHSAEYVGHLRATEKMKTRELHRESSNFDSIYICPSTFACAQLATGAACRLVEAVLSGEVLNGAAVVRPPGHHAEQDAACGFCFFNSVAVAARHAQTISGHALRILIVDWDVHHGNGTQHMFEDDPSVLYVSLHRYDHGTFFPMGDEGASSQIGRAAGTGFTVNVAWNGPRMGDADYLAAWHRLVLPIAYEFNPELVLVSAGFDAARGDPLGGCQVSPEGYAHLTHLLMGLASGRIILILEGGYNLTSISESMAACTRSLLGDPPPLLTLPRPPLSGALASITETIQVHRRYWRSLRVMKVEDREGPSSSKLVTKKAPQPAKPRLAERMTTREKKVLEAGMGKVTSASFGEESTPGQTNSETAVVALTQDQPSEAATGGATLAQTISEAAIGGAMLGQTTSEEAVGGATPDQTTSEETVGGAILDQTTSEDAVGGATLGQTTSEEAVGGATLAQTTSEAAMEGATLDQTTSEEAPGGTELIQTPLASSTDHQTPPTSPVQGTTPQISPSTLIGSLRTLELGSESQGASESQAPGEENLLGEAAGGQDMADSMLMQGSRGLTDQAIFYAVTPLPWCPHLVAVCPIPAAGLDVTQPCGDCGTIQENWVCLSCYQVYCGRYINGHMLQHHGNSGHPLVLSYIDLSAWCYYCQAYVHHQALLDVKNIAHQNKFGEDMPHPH

[5] = Aqueous solubility of compound in ethanol incubated at 37 degree C by LC-MS analysis; assay type: physicochemical
[6] = AUC (0 to infinity) in Sprague-Dawley rat at 2 mg/kg, iv measured up to 24 hrs; assay type: ADME, organism-based; set-up: dose 2 mg/kg, time infinity, route intravenous; conditions: in vivo
Mus musculus [7] = experiment: Upregulation of acetylated H4K5 protein expression in right side cortex of bilateral common carotid artery occlusion-induced vascular dementia C57BL/6J mouse model at 25 mg/kg, ip measured after 3 months by Western blot analysis; assay type: functional, organism-based
Histone deacetylase 4 = Histone deacetylase 4 (Homo sapiens, UniProt P56524); experiment: Inhibition of recombinant N-terminal GST-tagged/C-terminal His-tagged human HDAC4 (627 to 1084 residues) expressed in baculovirus infected insect cells using RHK-K(Ac)-AMC as substrate after 60 mins by fluorimetry analysis
Histone deacetylase 4, sequence (P56524 whole entry, the tested form may be a part): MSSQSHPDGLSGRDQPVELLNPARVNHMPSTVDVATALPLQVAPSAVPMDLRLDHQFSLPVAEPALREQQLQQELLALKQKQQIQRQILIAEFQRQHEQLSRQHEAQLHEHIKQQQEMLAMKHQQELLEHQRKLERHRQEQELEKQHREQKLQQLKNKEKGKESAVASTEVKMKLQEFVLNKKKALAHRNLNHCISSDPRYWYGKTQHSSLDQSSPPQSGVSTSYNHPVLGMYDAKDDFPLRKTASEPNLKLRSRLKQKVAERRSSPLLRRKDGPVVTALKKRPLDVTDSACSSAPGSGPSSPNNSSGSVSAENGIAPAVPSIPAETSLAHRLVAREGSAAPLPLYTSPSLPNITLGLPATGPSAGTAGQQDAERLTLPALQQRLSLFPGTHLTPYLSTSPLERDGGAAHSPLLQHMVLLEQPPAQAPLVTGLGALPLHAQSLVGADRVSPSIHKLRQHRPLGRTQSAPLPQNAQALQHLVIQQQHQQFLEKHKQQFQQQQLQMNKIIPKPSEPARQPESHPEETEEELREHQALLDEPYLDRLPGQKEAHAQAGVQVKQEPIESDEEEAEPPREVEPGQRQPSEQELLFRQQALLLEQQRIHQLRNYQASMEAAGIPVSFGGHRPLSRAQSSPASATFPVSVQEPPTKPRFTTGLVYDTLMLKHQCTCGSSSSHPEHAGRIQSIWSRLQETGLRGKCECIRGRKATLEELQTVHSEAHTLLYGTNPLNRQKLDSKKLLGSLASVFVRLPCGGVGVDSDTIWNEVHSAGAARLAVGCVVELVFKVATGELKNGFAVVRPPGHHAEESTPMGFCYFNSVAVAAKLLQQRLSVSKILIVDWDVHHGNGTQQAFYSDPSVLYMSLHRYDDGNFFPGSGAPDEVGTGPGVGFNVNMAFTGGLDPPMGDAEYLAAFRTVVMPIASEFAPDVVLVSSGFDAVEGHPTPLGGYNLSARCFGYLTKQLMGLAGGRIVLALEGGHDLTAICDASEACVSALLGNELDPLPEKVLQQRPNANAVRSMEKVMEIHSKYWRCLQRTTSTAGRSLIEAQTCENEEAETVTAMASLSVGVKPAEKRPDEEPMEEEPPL

SH-SY5Y = experiment: Neuroprotective activity against OGD-induced hypoxic injury in human SH-SY5Y cells assessed as LDH release at 5 uM incubated under oxygen/glucose deprivation-induced hypoxic medium by LDH assay (reference value: 27.47 +/- 3.23 %); assay type: functional
[8] = AUC (0 to infinity) in Sprague-Dawley rat at 10 mg/kg, po measured up to 24 hrs; assay type: ADME, organism-based; set-up: dose 10 mg/kg, time infinity, route oral; conditions: in vivo
Mus musculus [9] = experiment: Upregulation of acetylated H3K14 protein expression in hippocampus of bilateral common carotid artery occlusion-induced vascular dementia C57BL/6J mouse model at 25 mg/kg, ip measured after 3 months by Western blot analysis; assay type: functional, organism-based
[10] = Half life in Sprague-Dawley rat at 2 mg/kg, iv measured up to 24 hrs; assay type: ADME, organism-based; conditions: in vivo
[11] = Clearance in Sprague-Dawley rat at 2 mg/kg, iv measured up to 24 hrs; assay type: ADME, organism-based; conditions: in vivo
Mus musculus [12] = experiment: Upregulation of acetylated H4K5 protein expression in hippocampus of bilateral common carotid artery occlusion-induced vascular dementia C57BL/6J mouse model at 25 mg/kg, ip measured after 3 months by Western blot analysis; assay type: functional, organism-based

IC50 (Histone deacetylase 2): 6.62 µM | IC50 [4]: 1.27 µM | solubility [5]: 6.58 µg/mL (≈ 14.2 µM) | AUC(0-inf) [6]: 1850 ng·h/mL | IC50 (Histone deacetylase 4): Not Active | AUC(0-inf) [8]: 166 ng·h/mL | half-life [10]: 17.2 h | clearance [11]: 21.3 mL/min/kg
SMILES: O=C(/C=C/c1ccc(CNCCCN2c3ccccc3CCc3ccc(Cl)cc32)cc1)NO
Ratio (Mus musculus [1]): 0.923 | Activity (Mus musculus [2]): Active | Activity (Mus musculus [3]): 89 - 92% | Activity (Mus musculus [7]): Active | Activity (SH-SY5Y): 17.73% | Activity (Mus musculus [9]): Active | Activity (Mus musculus [12]): Active
